Measurements as given in the supplement of paper PMC4862054.

Legend:
Settings in all cases: incubation time: 72 h
CAL-85-1 [1] = test: normalised response (% of control), CellTox Green; higher = less cell death (100 = DMSO, 0 = benzethonium chloride kill control)
Procedure, shortened: (§1)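 In 384-well plates holding compound at 5 concentrations in 10-fold steps over a 10,000-fold range specific to each compound, breast cancer cell lines were seeded as 20 µl suspension and incubated 72 h. CellTox Green fluorescence was measured at 485/520 nm, after which CellTiter-Glo luminescence was measured following 10 min at room temperature. Plate signals were normalised to 0.1 % DMSO (100) and a positive kill control (0), and each value is the normalised signal at a single concentration.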

HDQ-P1 [2] = test: as above
Procedure, shortened: as §1

CAL-51 [3] = test: as above
Procedure, shortened: as §1

DU-4475 [4] = test: as above
Procedure, shortened: as §1

CAL-148 [5] = test: as above
Procedure, shortened: as §1

HCC1143 [6] = test: as above
Procedure, shortened: as §1

HCC1937 [7] = test: as above
Procedure, shortened: as §1

MDA-MB-231 [8] = test: as above
Procedure, shortened: as §1

Hs578T [9] = test: as above
Procedure, shortened: as §1

BT-474 [10] = test: as above
Procedure, shortened: as §1

MDA-MB-453 [11] = test: as above
Procedure, shortened: as §1

HCC1599 [12] = test: as above
Procedure, shortened: as §1

CAL-120 [13] = test: as above
Procedure, shortened: as §1

MDA-MB-436 [14] = test: as above
Procedure, shortened: as §1

MCF-10A [15] = test: as above
Procedure, shortened: as §1

MFM-223 [16] = test: as above
Procedure, shortened: as §1

MDA-MB-468 [17] = test: as above
Procedure, shortened: as §1

BT-549 [18] = test: as above
Procedure, shortened: as §1

CAL-85-1 [19] = test: normalised response (% of control), CellTiter-Glo; higher = more viable cells (100 = DMSO, 0 = benzethonium chloride kill control)
Procedure, shortened: as §1

HDQ-P1 [20] = test: as above
Procedure, shortened: as §1

CAL-51 [21] = test: as above
Procedure, shortened: as §1

DU-4475 [22] = test: as above
Procedure, shortened: as §1

CAL-148 [23] = test: as above
Procedure, shortened: as §1

HCC1143 [24] = test: as above
Procedure, shortened: as §1

HCC1937 [25] = test: as above
Procedure, shortened: as §1

MDA-MB-231 [26] = test: as above
Procedure, shortened: as §1

Hs578T [27] = test: as above
Procedure, shortened: as §1

BT-474 [28] = test: as above
Procedure, shortened: as §1

MDA-MB-453 [29] = test: as above
Procedure, shortened: as §1

HCC1599 [30] = test: as above
Procedure, shortened: as §1

CAL-120 [31] = test: as above
Procedure, shortened: as §1

MDA-MB-436 [32] = test: as above
Procedure, shortened: as §1

MCF-10A [33] = test: as above
Procedure, shortened: as §1

MFM-223 [34] = test: as above
Procedure, shortened: as §1

SK-BR-3 = test: as above
Procedure, shortened: as §1

MDA-MB-468 [35] = test: as above
Procedure, shortened: as §1

BT-549 [36] = test: as above
Procedure, shortened: as §1

Row | Compound | normalised response (CAL-85-1 [1]) [%] | normalised response (HDQ-P1 [2]) [%] | normalised response (CAL-51 [3]) [%] | normalised response (DU-4475 [4]) [%] | normalised response (CAL-148 [5]) [%] | normalised response (HCC1143 [6]) [%] | normalised response (HCC1937 [7]) [%] | normalised response (MDA-MB-231 [8]) [%] | normalised response (Hs578T [9]) [%] | normalised response (BT-474 [10]) [%] | normalised response (MDA-MB-453 [11]) [%] | normalised response (HCC1599 [12]) [%] | normalised response (CAL-120 [13]) [%] | normalised response (MDA-MB-436 [14]) [%] | normalised response (MCF-10A [15]) [%] | normalised response (MFM-223 [16]) [%] | normalised response (MDA-MB-468 [17]) [%] | normalised response (BT-549 [18]) [%] | normalised response (CAL-85-1 [19]) [%] | normalised response (HDQ-P1 [20]) [%] | normalised response (CAL-51 [21]) [%] | normalised response (DU-4475 [22]) [%] | normalised response (CAL-148 [23]) [%] | normalised response (HCC1143 [24]) [%] | normalised response (HCC1937 [25]) [%] | normalised response (MDA-MB-231 [26]) [%] | normalised response (Hs578T [27]) [%] | normalised response (BT-474 [28]) [%] | normalised response (MDA-MB-453 [29]) [%] | normalised response (HCC1599 [30]) [%] | normalised response (CAL-120 [31]) [%] | normalised response (MDA-MB-436 [32]) [%] | normalised response (MCF-10A [33]) [%] | normalised response (MFM-223 [34]) [%] | normalised response (SK-BR-3) [%] | normalised response (MDA-MB-468 [35]) [%] | normalised response (BT-549 [36]) [%]
1 | CO[C@H](C(=O)[C@@H](O)[C@@H](C)O)[C@@H]1Cc2cc3cc(O[C@H]4C[C@@H](O[C@@H]5C[C@@H](O)[C@H](O)[C@@H](C)O5)[C@H](O)[C@@H](C)O4)c(C)c(O)c3c(O)c2C(=O)[C@H]1O[C@H]1C[C@@H](O[C@@H]2C[C@@H](O)[C@@H](O[C@@H]3C[C@](C)(O)[C@H](O)[C@@H](C)O3)[C@@H](C)O2)[C@H](O)[C@@H](C)O1 [Plicamycin] (100 nM) | 99 | 94.3 | 85.5 | 102 | 107 | 101 | 119 | 109 | 86 | 99.4 | 105 | 106 | 102 | 96.8 | 93.4 | 100 | 131 | 98.7 | 100 | 99.5 | 66.4 | 105 | 112 | 104 | 98 | 104 | 104 | 100 | 114 | 99.4 | 103 | 103 | 108 | 103 | 102 | 105 | 103
2 | CC/C(=C(\c1ccccc1)c1ccc(OCCN(C)C)cc1)c1ccccc1 [Tamoxifen] (100 nM) | 105 | 87.8 | 115 | 105 | 106 | 113 | 91.9 | 91.3 | 97.7 | 100 | 100 | 103 | 103 | 74.1 | 106 | 103 | 71.4 | 99.3 | 99.9 | 105 | 91.5 | 105 | 110 | 108 | 100 | 107 | 105 | 97.9 | 102 | 101 | 110 | 99.1 | 107 | 103 | 99.4 | 98 | 99.2
3 | C[C@@H](C(=O)O)c1ccc(-c2ccccc2)c(F)c1 [Tarenflurbil] (100 nM) | 101 | 93 | 92.8 | 98.1 | 102 | 98.1 | 100 | 96.1 | 89.7 | 93.2 | 100 | 99.3 | 103 | 72 | 61.1 | 103 | 101 | 98.8 | 95 | 95.2 | 91.1 | 101 | 90.3 | 94.8 | 91.2 | 97.3 | 102 | 101 | 101 | 106 | 98.3 | 97.9 | 91.7 | 96.2 | 91.6 | 96.4 | 97.3
4 | Cn1nnc2c(C(N)=O)ncn2c1=O [Temozolomide] (100 nM) | 107 | 81.8 | 108 | 101 | 100 | 96.3 | 82.5 | 110 | 89.4 | 97.8 | 105 | 89.7 | 99.2 | 104 | 89.1 | 102 | 92.8 | 101 | 93.6 | 93.2 | 107 | 96.8 | 98.8 | 101 | 88.2 | 101 | 103 | 95.4 | 102 | 90.9 | 99.7 | 98.8 | 103 | 104 | 96.5 | 100 | 106
5 | CCc1c(C(=O)C(N)=O)c2c(OCC(=O)O)cccc2n1Cc1ccccc1 [Varespladib] (100 nM) | 99.3 | 96 | 96.8 | 104 | 102 | 92.1 | 83.1 | 104 | 99.9 | 104 | 105 | 97 | 102 | 106 | 112 | 91.1 | 88.9 | 99.1 | 98.5 | 101 | 95.6 | 98.8 | 103 | 103 | 102 | 103 | 104 | 98 | 97 | 95.9 | 111 | 98.5 | 105 | 102 | 101 | 95.3 | 100
